These compounds were tested on P. falciparum Dd2 (assay: In vitro P. falciparum blood-stage culture and assay). Details: 72 h incubation, SYBR Green I readout, read-out: Pf Dd2.
Assay type: cell-based
Description: Strains of P. falciparum (Dd2, 3D7, D6, K1, NF54, V1/3, HB3, 7G8, FCB and TM90C2B) were obtained from the Malaria Research and Reference Reagent Resource Center (MR4). P. falciparum isolates were maintained with O-positive human blood in an atmosphere of 93% N2, 4% CO2, 3% O2 at 37° C. in complete culturing medium (10.4 g/L RPMI 1640, 5.94 g/L HEPES, 5 g/L albumax II, 50 mg/L hypoxanthine, 2.1 g/L sodium bicarbonate, 10% human serum and 43 mg/L gentamicin). Parasites were cultured in medium until parasitaemia reached 3-8%. Parasitaemia was determined by checking at least 500 red blood cells from a Giemsa-stained blood smear. For the compound screening, a parasite dilution at 2.0% parasitaemia and 2.0% haematocrit was created with medium. 25 μl of medium was dispensed into 384-well black, clear-bottom plates and 100 nl of each compound in DMSO was transferred into assay plates along with the control compound (mefloquine). Next, 25 μl of the parasite suspension in medium was dispensed into the assay plates giving a final parasitaemia of 1% and a final haematocrit of 1%. The assay plates were incubated for 72 h at 37° C. 10 μl of detection reagent consisting of 10×SYBR Green I (Invitrogen; supplied in 10,000× concentration) in lysis buffer (20 mM Tris-HCl, 5 mM EDTA, 0.16% (w/v) Saponin, 1.6% (v/v) Triton X-100) was dispensed into the assay plates. For optimal staining, the assay plates were left at room temperature for 24 h in the dark. The assay plates were read with 505 dichroic mirrors with 485 nm excitation and 530 nm emission settings in an Envision (PerkinElmer).

Compound | EC50
COc1ccc(NC(=O)N2CCC(O)CN3[C@H](CN(C)C)[C@H](c4ccc(C#Cc5ccccc5)cc4)[C@@H]3C2)cc1 (single isomer, unassigned) [Example E16] | > 250 nM

Same assay, conditions: Plasmodium falciparum, DD2, 72 h, 72 h incubation, SYBR Green I readout, read-out: Pf Dd2

Compound | EC50
COc1ccc(NC(=O)N2C[C@H](N(C)C)CCN3[C@H](CO)[C@H](c4ccc(C#Cc5ccccc5)cc4)[C@@H]3C2)cc1 [Example E30, (4R,8R,9R,10S)-4-(dimethylamino)-10-(hydroxymethyl)-N-(4-methoxyphenyl)-9-(4-(phenylethynyl)phenyl)-1,6-diazabicyclo[6.2.0]decane-6-carboxamide] | > 250 nM
COc1ccc(NC(=O)N2C[C@@H](O)[C@@H](O)CN3[C@H](CO)[C@H](c4ccc(C#Cc5cccnc5)cc4)[C@@H]3C2)cc1 [Example E22, (3S,4R,8R,9R,10S)-3,4-dihydroxy-10-(hydroxymethyl)-N-(4-methoxyphenyl)-9-(4-(pyridin-3-ylethynyl)phenyl)-1,6-diazabicyclo[6.2.0]decane-6-carboxamide] | > 250 nM
COc1ccc(NC(=O)N2CCCC(C)N3[C@H](CO)[C@H](c4ccc(C#Cc5ccccc5)cc4)[C@@H]3C2)cc1 (stereo partly drawn) [Example E35, (8R,9R,10S)-10-(hydroxymethyl)-N-(4-methoxyphenyl)-2-methyl-9-[4-(2-phenylethynyl)phenyl]-1,6-diazabicyclo[6.2.0]decane-6-carboxamide] | < 50 nM
COc1ccc(NC(=O)N2C[C@@H](O)[C@@H](O)CN3[C@H](CN(C)C)[C@H](c4ccc(C#Cc5cccc(F)c5F)cc4)[C@@H]3C2)cc1 [Example E12, (3S,4R,8R,9S,10S)-9-(4-((2,3-difluorophenyl)ethynyl)phenyl)-10-((dimethylamino)methyl)-3,4-dihydroxy-N-(4-methoxyphenyl)-1,6-diazabicyclo[6.2.0]decane-6-carboxamide] | 50 to 250 nM
CCN(CC)C[C@@H]1[C@H](c2ccc(C#Cc3ccccc3)cc2)[C@@H]2CN(C(=O)Nc3ccc(OC)cc3)C[C@@H](O)[C@@H](O)CN12 [Example E9, (3S,4R,8R,9S,10S)-10-(diethylaminomethyl)-3,4-dihydroxy-N-(4-methoxyphenyl)-9-[4-(2-phenylethynyl)phenyl]-1,6-diazabicyclo[6.2.0]decane-6-carboxamide] | < 50 nM
COc1ccc(NC(=O)N2CC[C@@H](N(C)C)CN3[C@H](CO)[C@H](c4ccc(C#Cc5ccccc5)cc4)[C@@H]3C2)cc1 [Example E28, (3R,8R,9R,10S)-3-(dimethylamino)-10-(hydroxymethyl)-N-(4-methoxyphenyl)-9-[4-(2-phenylethynyl)phenyl]-1,6-diazabicyclo[6.2.0]decane-6-carboxamide] | 50 to 250 nM
COc1ccc(NC(=O)N2C[C@@H](N(C)C)CCN3[C@H](CO)[C@H](c4ccc(C#Cc5ccccc5)cc4)[C@@H]3C2)cc1 [Example E3, (4S,8R,9R,10S)-4-(dimethylamino)-10-(hydroxymethyl)-N-(4-methoxyphenyl)-9-(4-(phenylethynyl)phenyl)-1,6-diazabicyclo[6.2.0]decane-6-carboxamide] | > 250 nM
COc1ccc(NC(=O)N2C[C@@H](O)CCN3[C@H](CN(C)C)[C@H](c4ccc(C#Cc5ccccc5)cc4)[C@@H]3C2)cc1 [Example E24, (4S,8R,9S,10S)-10-[(dimethylamino)methyl]-4-hydroxy-N-(4-methoxyphenyl)-9-[4-(2-phenylethynyl)phenyl]-1,6-diazabicyclo[6.2.0]decane-6-carboxamide] | > 250 nM
COc1ccc(NC(=O)N2CC[C@H](N(C)C)CN3[C@H](CO)[C@H](c4ccc(C#Cc5ccccc5)cc4)[C@@H]3C2)cc1 [Example E29, (3S,8R,9R,10S)-3-(dimethylamino)-10-(hydroxymethyl)-N-(4-methoxyphenyl)-9-(4-(phenylethynyl)phenyl)-1,6-diazabicyclo[6.2.0]decane-6-carboxamide] | 50 to 250 nM
COc1ccc(NC(=O)N2C[C@@H](O)[C@@H](O)CN3[C@H](CN(C)C)[C@H](c4ccc(C#Cc5ccccc5)cc4)[C@@H]3C2)cc1 [Example E5, (3S,4R,8R,9S,10S)-10-((dimethylamino)methyl)-3,4-dihydroxy-N-(4-methoxyphenyl)-9-(4-(phenylethynyl)phenyl)-1,6-diazabicyclo[6.2.0]decane-6-carboxamide] | < 50 nM
COc1ccc(NC(=O)N2CC(CO)CCN3[C@H](CN(C)C)[C@H](c4ccc(C#Cc5ccccc5)cc4)[C@@H]3C2)cc1 (stereo partly drawn) [Example E33, (8R,9S,10S)-10-[(dimethylamino)methyl]-4-(hydroxymethyl)-N-(4-methoxyphenyl)-9-[4-(2-phenylethynyl)phenyl]-1,6-diazabicyclo[6.2.0]decane-6-carboxamide] | < 50 nM
COc1ccc(NC(=O)N2C[C@H](O)[C@H](O)CN3[C@H](CO)[C@H](c4ccc(C#Cc5cccnc5)cc4)[C@@H]3C2)cc1 [Example E23, (3R,4S,8R,9R,10S)-3,4-dihydroxy-10-(hydroxymethyl)-N-(4-methoxyphenyl)-9-(4-(pyridin-3-ylethynyl)phenyl)-1,6-diazabicyclo[6.2.0]decane-6-carboxamide] | 50 to 250 nM
COc1ccc(NC(=O)N2C[C@@H](O)[C@@H](O)CN3[C@H](CN(C)C)[C@H](c4ccc(C#Cc5ccccc5F)cc4)[C@@H]3C2)cc1 [Example E7, (3S,4R,8R,9S,10S)-10-[(dimethylamino)methyl]-9-[4-[2-(2-fluorophenyl)ethynyl]phenyl]-3,4-dihydroxy-N-(4-methoxyphenyl)-1,6-diazabicyclo[6.2.0]decane-6-carboxamide] | < 50 nM
COc1ccc(NC(=O)N2C[C@H](O)[C@H](O)CN3[C@H](CN(C)C)[C@H](c4ccc(C#Cc5cccc(F)c5F)cc4)[C@@H]3C2)cc1 [Example E13, (3R,4S,8R,9S,10S)-9-[4-[2-(2,3-difluorophenyl)ethynyl]phenyl]-10-[(dimethylamino)methyl]-3,4-dihydroxy-N-(4-methoxyphenyl)-1,6-diazabicyclo[6.2.0]decane-6-carboxamide] | < 50 nM
COc1ccc(NC(=O)N2C[C@@H](O)[C@@H](O)CN3[C@H](CN(C)C(C)C)[C@H](c4ccc(C#Cc5ccccc5)cc4)[C@@H]3C2)cc1 [Example E10, (3S,4R,8R,9S,10S)-3,4-dihydroxy-10-[[isopropyl(methyl)amino]methyl]-N-(4-methoxyphenyl)-9-[4-(2-phenylethynyl)phenyl]-1,6-diazabicyclo[6.2.0]decane-6-carboxamide] | < 50 nM
COc1ccc(NC(=O)N2CCC(CN(C)C)CN3[C@H](CN(C)C)[C@H](c4ccc(C#Cc5ccccc5)cc4)[C@@H]3C2)cc1 (stereo partly drawn) [Example E25, (8R,9S,10S)-3,10-bis[(dimethylamino)methyl]-N-(4-methoxyphenyl)-9-[4-(2-phenylethynyl)phenyl]-1,6-diazabicyclo[6.2.0]decane-6-carboxamide] | 50 to 250 nM
COc1ccc(NC(=O)N2C[C@H]3OCCO[C@H]3CN3[C@H](CN(C)C)[C@H](c4ccc(C#Cc5ccccc5)cc4)[C@@H]3C2)cc1 [Example E14, (4aR,7aR,8S,9S,11aS)-9-((dimethylamino)methyl)-N-(4-methoxyphenyl)-8-(4-(phenylethynyl)phenyl)octahydro-2H-azeto[1,2-a][1,4]dioxino[2,3-f][1,4]diazocine-6(3H)-carboxamide] | < 50 nM
CN(C)C[C@@H]1[C@H](c2ccc(C#Cc3ccccc3)cc2)[C@@H]2CN(C(=O)Nc3ccc(OC4CC4)cc3)C[C@@H](O)[C@@H](O)CN12 (single isomer, unassigned) [Example E1] | < 50 nM

Source: US11174260B2, “Compounds and methods for the treatment of parasitic diseases” (THE BROAD INSTITUTE, INC., priority 2017, dated 2021)
